Tests used:
[1] = target: T1, HCV NS3/4A protease complex, J4L6S strain (1b genotype) (Hepatitis C virus genotype 1b, UniProt O92972, C1454S/C1711G); experiment: FRET peptide assay, HCV NS3/4A protease complex, J4L6S strain; assay type: biochemical
T1 construct: DNA encoding the recombinant HCV NS3/4A protease complex (amino acids 1027 to 1711) for these strains; His tag (inferred from pET21b vector and Ni-NTA purification); made in house; host or cells: Escherichia coli BL21 (DE3)
Source text: HCV NS3 protease complexes, derived from the BMS strain, H77 strain or J4L6S strain, were generated, as described below. These purified recombinant proteins were generated for use in a homogeneous assay (see below) to provide an indication of how effective compounds of the present disclosure would be in inhibiting HCV NS3 proteolytic activity.
Serum from an HCV-infected patient was obtained from Dr. T. Wright, San Francisco Hospital. An engineered full-length cDNA (compliment deoxyribonucleic acid) template of the HCV genome (BMS strain) was constructed from DNA fragments obtained by reverse transcription-PCR (RT-PCR) of serum RNA (ribonucleic acid) and using primers selected on the basis of homology between other genotype 1a strains. From the determination of the entire genome sequence, a genotype 1a was assigned to the HCV isolate according to the classification of Simmonds et al. (See P Simmonds, K A Rose, S Graham, S W Chan, F McOmish, B C Dow, E A Follett, P L Yap and H Marsden, J. Clin. Microbiol., 31(6), 1493-1503 (1993)). […]

[2] = test system: human pancreatic chymotrypsin; experiment: Specificity assay, chymotrypsin; assay type: biochemical; settings: read-out: Chymotrypsin activity in the specificity assays
Experimental: The specificities of compounds of the present disclosure were determined against a variety of serine proteases: human neutrophil elastase (HNE), porcine pancreatic elastase (PPE) and human pancreatic chymotrypsin and one cysteine protease: human liver cathepsin B. In all cases a 96-well plate format protocol using a fluorometric Amino-Methyl-Coumarin (AMC) substrate specific for each enzyme was used as described previously (PCT Patent Application No. WO 00/09543) with some modifications to the serine protease assays. All enzymes were purchased from Sigma, EMDbiosciences while the substrates were from Bachem, Sigma and EMDbiosciences.
Compound concentrations varied from 100 to 0.4 μM depending on their potency. The enzyme assays were each initiated by addition of substrate to enzyme-inhibitor pre-incubated for 10 min at room temperature and hydrolysis to 15% conversion as measured on cytofluor. […]
The percentage of inhibition was calculated using the formula: […]

T1 sequence (O92972 1027-1711 C1454S/C1711G, one chain of several): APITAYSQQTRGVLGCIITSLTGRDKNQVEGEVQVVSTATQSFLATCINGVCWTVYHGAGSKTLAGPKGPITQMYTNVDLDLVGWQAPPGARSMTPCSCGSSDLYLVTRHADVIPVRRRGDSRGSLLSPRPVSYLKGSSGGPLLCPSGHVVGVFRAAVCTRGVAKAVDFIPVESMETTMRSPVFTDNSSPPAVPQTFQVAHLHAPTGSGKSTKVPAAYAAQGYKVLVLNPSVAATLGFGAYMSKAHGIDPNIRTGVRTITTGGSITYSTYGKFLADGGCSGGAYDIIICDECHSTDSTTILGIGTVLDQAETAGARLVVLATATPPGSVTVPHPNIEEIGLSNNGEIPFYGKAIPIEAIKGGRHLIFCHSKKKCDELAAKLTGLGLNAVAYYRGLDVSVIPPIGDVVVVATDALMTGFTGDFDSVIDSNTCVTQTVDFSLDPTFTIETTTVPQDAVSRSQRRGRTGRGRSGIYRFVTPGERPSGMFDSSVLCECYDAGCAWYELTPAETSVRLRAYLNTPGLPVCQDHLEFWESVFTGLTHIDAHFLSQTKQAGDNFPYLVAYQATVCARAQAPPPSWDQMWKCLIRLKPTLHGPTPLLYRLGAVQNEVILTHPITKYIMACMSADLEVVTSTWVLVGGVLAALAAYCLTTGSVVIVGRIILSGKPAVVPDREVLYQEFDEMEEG

COc1ccc2c(O[C@@H]3C[C@H]4C(=O)N[C@]5(C(=O)NS(=O)(=O)C6CC6)C[C@H]5/C=C\CCCCC[C@H](Nc5ccc(OC)nc5)C(=O)N4C3)nccc2c1 (single isomer, unassigned) [Compound 1]
IC50 [1]: 0.0012 µM | IC50 [2]: 25 µM

Source: patent US20090285773A1, “Hepatitis C Virus Inhibitors” (Bristol-Myers Squibb Company, priority 2008, published 2009)
